Each structure is given as a SMILES string.

Drawing on ChEMBL document CHEMBL5653631, “A Potent and Selective ULK1 Inhibitor Suppresses Autophagy and Sensitizes Cancer Cells to Nutrient Stress” (iScience, 2018), this text covers inhibition and fold change (FC) for three compounds.

In assay [1] the target is Protein kinase C alpha type (Homo sapiens) (UniProt P17252). Nature of the assay: Inhibition of human recombinant PKCa at 15 nM in presence of ATP by radiometric assay relative to control.
For assay [2], the target named is T1, cAMP-dependent protein kinase catalytic subunit PRKX (Homo sapiens) (UniProt P51817).
T1 sequence (whole entry): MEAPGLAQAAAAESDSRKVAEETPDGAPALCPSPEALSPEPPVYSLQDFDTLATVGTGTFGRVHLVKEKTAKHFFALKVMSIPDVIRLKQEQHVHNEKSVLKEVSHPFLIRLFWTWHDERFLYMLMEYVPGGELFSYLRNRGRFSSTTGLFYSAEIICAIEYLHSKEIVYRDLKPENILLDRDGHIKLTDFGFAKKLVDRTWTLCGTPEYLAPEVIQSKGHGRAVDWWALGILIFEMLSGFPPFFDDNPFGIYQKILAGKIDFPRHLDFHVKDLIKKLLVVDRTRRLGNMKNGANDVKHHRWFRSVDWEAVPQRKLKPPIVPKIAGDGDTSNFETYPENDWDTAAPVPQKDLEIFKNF
Description: Inhibition of human recombinant PRKX at 15 nM in presence of ATP by radiometric assay relative to control.

In assay [3] the target is Protein kinase C alpha type (Homo sapiens) (UniProt P17252). Nature of the assay: Inhibition of human recombinant PKCa at 40 nM in presence of ATP by radiometric assay relative to control.
For assay [4], the target named is T2, Serine/threonine-protein kinase D3 (Homo sapiens) (UniProt O94806).
T2 sequence (whole entry): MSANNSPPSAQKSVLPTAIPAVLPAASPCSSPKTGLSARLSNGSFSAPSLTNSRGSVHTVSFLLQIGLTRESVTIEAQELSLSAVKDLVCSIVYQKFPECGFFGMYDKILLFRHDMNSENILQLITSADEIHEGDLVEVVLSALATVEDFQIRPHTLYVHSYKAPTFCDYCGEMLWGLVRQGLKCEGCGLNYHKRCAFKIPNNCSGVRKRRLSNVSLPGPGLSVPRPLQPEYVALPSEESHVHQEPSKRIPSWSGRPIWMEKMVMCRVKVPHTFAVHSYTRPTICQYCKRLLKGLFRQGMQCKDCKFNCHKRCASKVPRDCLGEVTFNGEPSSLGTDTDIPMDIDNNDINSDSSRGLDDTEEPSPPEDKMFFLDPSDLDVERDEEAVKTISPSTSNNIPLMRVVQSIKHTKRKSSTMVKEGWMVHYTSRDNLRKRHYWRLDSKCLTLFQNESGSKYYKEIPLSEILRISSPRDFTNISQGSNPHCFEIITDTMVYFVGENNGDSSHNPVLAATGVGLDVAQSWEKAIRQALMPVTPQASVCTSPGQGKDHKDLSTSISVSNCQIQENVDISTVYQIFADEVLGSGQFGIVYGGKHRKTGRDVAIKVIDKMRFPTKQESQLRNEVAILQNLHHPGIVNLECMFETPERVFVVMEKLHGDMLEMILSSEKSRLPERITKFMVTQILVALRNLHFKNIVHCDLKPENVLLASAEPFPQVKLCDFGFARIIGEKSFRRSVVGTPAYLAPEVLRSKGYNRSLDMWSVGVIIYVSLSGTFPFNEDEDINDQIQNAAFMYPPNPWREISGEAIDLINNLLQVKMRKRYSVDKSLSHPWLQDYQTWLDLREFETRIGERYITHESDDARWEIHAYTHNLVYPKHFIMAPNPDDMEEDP
Nature of the assay: Inhibition of human recombinant PKD3 at 500 nM in presence of ATP by radiometric assay relative to control.

Assay [5] deals with T3, Mitogen-activated protein kinase kinase kinase kinase 2 (Homo sapiens) (UniProt Q12851).
T3 sequence (whole entry): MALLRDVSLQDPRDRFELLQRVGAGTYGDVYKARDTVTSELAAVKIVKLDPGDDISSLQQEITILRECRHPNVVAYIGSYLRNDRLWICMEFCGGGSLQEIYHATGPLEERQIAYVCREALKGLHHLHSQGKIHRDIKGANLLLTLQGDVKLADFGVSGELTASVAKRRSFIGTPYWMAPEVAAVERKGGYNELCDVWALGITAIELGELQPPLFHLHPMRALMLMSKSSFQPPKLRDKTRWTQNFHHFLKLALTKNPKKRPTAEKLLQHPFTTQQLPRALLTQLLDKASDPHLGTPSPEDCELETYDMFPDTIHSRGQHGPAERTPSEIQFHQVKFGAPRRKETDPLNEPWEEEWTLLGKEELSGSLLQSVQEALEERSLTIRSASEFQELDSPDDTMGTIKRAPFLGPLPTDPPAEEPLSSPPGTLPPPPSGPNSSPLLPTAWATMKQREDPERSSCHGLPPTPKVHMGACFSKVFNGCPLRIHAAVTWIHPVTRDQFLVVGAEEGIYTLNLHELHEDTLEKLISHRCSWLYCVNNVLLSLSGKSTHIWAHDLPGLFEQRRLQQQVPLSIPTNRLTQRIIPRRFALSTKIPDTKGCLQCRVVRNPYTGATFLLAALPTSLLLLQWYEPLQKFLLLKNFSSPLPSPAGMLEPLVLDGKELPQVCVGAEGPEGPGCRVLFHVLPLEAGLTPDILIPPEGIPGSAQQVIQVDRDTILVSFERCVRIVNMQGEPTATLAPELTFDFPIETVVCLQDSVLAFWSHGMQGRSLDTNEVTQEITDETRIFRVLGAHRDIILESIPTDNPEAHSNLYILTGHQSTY
Nature of the assay: Inhibition of human recombinant GCK at 500 nM related to control ULK1.

In assay [6] the target is Mitogen-activated protein kinase kinase kinase kinase 1 (Homo sapiens) (UniProt Q92918). Description: Inhibition of human recombinant HPK1 at 500 nM related to control ULK1.
Assay [7] addresses PAS domain-containing serine/threonine-protein kinase (Homo sapiens) (UniProt Q96RG2). Description: Inhibition of human recombinant PASK at 500 nM related to control ULK1.

Chain of PAS domain-containing serine/threonine-protein kinase (Homo sapiens) (Q96RG2 whole entry, the tested form may be a part): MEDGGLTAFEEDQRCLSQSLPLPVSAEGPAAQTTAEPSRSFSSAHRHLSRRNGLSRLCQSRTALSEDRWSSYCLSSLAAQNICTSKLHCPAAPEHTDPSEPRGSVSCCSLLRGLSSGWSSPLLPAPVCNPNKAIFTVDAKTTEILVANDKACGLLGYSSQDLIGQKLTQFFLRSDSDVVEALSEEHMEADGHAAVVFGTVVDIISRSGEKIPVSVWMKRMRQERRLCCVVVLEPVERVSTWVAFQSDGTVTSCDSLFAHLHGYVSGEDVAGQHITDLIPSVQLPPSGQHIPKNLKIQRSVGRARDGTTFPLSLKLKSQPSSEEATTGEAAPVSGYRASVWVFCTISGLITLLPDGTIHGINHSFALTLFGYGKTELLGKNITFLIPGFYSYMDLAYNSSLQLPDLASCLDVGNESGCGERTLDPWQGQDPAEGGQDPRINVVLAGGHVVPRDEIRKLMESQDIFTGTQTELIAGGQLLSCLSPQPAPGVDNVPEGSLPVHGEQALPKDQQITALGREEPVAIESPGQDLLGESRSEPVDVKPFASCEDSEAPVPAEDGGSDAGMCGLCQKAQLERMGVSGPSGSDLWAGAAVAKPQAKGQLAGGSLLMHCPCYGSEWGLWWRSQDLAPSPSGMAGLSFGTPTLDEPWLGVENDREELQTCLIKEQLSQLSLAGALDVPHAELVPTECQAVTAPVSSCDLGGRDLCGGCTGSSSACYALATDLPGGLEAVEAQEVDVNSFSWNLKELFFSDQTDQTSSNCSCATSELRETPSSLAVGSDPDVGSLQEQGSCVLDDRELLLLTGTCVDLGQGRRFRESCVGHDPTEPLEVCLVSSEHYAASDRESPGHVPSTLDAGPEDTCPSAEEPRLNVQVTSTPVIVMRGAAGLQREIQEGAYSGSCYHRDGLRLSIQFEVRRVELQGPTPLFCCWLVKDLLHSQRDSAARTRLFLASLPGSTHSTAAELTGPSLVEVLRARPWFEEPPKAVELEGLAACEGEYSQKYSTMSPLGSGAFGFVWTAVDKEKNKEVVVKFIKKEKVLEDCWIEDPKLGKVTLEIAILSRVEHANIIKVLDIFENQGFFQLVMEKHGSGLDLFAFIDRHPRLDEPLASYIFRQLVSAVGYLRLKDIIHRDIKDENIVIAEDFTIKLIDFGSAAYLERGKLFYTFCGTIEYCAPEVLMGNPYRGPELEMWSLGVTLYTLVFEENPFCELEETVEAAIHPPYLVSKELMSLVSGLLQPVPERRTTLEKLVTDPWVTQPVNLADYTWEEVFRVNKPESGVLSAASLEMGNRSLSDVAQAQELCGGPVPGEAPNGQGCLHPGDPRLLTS
Chain of Mitogen-activated protein kinase kinase kinase kinase 1 (Homo sapiens) (Q92918 whole entry, looked up, the tested form may be a part): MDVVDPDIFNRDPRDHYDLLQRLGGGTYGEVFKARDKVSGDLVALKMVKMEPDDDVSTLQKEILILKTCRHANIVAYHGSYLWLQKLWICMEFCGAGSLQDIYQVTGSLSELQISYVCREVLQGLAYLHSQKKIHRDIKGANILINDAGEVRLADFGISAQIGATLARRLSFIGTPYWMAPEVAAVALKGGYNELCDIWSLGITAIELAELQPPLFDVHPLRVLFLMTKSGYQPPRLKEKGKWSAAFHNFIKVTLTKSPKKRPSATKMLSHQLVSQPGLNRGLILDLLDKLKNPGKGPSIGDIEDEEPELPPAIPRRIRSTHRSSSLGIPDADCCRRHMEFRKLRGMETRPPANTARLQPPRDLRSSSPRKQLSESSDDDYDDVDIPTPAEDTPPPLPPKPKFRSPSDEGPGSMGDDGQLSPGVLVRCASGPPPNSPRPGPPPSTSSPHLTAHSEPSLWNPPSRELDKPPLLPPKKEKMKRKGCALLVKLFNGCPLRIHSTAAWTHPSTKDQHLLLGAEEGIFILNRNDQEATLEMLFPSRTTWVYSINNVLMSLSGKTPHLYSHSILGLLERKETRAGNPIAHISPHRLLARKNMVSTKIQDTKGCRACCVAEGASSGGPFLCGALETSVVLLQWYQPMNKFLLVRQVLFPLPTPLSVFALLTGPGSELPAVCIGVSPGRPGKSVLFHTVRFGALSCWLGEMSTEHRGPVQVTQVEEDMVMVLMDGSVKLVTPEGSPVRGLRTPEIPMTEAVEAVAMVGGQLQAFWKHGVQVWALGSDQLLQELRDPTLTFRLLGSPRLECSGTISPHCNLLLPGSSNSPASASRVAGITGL

With `CC(C)[C@H](NC(=O)c1cc(-c2cnn3cc(-c4ccc(OCCN5CCCCC5)cc4)cnc23)cs1)C(F)(F)F`, the values for the inhibition in assay [1] and in assay [2] were 7% and 16%, respectively.
On to `O=C(N[C@@H](C1CC1)C(F)(F)F)c1cc(-c2cnn3cc(-c4ccc(F)cc4)cnc23)cs1`, for which the inhibition in assay [3] was found to be 0%.
Turning to `CNC(=O)c1ccccc1Oc1nc(Nc2cc(OC)c(OC)c(OC)c2)ncc1Br`, the inhibition in assay [4] is 0%. Further, the fold change (FC) stood at 0.45 in assay [5], 0.43 in assay [6] and 0.14 in assay [7].
